Experiments:
Kidney = experiment: Tissue uptake clearance in mouse kidney at […] mg/kg, iv in presence of 30 umol/kg TPeA; assay type: ADME, organism-based; details: in vivo
Liver = experiment: Tissue uptake clearance in mouse liver at […] mg/kg, iv in presence of 30 umol/kg TPeA; assay type: ADME, organism-based; details: in vivo

For `CN(C)C(=N)N=C(N)N` [METFORMIN], which Drug uptake (Kidney) is on record?
The Drug uptake was “Not Active”.

And the Drug uptake (Liver)?
The Drug uptake was “Not Active”.
